From patent US6693108B2, “Inhibitors of c-JUN N terminal kinases (JNK) and other protein kinases” (Vertex Pharmaceuticals Incorporated, priority 1999, dated 2004)

Target: T1, activated JNK3 (Homo sapiens, UniProt P53779)
T1 construct: One such construct encodes amino acid residues Ser40-Glu402 of JNK3α1 and is preceded by Met and Gly residues; Met-Gly (initiation Met plus Gly added to create the NcoI site) (N); made in house; host or cells: E. coli BL21 (DE3)
Assay: JNK3 inhibition, spectrophotometric coupled-enzyme assay
Assay type: biochemical
Set-up: Activity in the JNK3 Inhibition Assay (Ki rating): scale not given here
Conditions: for Ki: read-out: Activity in the JNK3 Inhibition Assay (Ki rating); for Activity in the JNK3 Inhibition Assay (Ki rating): activated JNK3 10 nM, 10 μM ATP, 30° C., Ki from competitive inhibition model
Excerpt: A BLAST search of the EST database using the published JNK3α1 cDNA as a query identified an EST clone (#632588) that contained the entire coding sequence for human JNK3α1. Polymerase chain reactions (PCR) using pfu polymerase (Strategene) were used to introduce restriction sites into the cDNA for cloning into the pET-15B expression vector at the NcoI and BamHI sites. The protein was expressed in E. coli. […] This truncation corresponds to Ser 2 of JNK1 and JNK2 proteins, and is preceded by a methionine (initiation) and a glycine residue. The glycine residue was added in order to introduce an NcoI site for cloning into the expression vector. In addition, systematic C-terminal truncations were performed by PCR to identify a construct that give rise to diffraction-quality crystals.
5 mg of JNK3 was diluted to 0.5 mg/ml in 50 mM HEPES buffer, pH 7.5, containing 100 mM NaCl, 5 mM DTT, 20 mM MgCl2 and 1 mM ATP. GST-MKK7(DD) was added at a molar ratio of 1:2.5 GST-MKK7:JNK3. After incubation for 30 minutes at 25° C., the reaction mixture was concentrated 5-fold by ultrafiltration in a Centriprep-30 (Amicon, Beverly, Mass.), diluted to 10 ml and an additional 1 mM ATP added. This procedure was repeated three times to remove ADP and replenish ATP. The final addition of ATP was 5 mM and the mixture incubated overnight at 4° C.
The activated JNK3/GST-MKK7(DD) reaction mixture was exchanged into 50 mM HEPES buffer, pH 7.5, containing 5 mM DTT and 5% glycerol (w/v) by dialysis or ultrafiltration. The reaction mixture was adjusted to 1.1 M potassium phosphate, pH 7.5, and purified by hydrophobic interaction chromatography (at 25° C.) using a Rainin Hydropore column. […] Activated JNK3 (i.e. doubly phosphorylated JNK3) was stored at −70° C. at 0.25-1 mg/ml.
Compounds were assayed for the inhibition of JNK3 by a spectrophotometric coupled-enzyme assay. In this assay, a fixed concentration of activated JNK3 (10 nM) was incubated with various concentrations of a potential inhibitor dissolved in DMSO for 10 minutes at 30° C. in a buffer containing 0.1 M HEPES buffer, pH 7.5, containing 10 mM MgCl2, 2.5 mM phosphoenolpyruvate, 200 μM NADH, 150 μg/mL pyruvate kinase, 50 μg/mL lactate dehydrogenase, and 200 μM EGF receptor peptide. […] The reaction was initiated by the addition of 10 μM ATP and the assay plate is inserted into the spectrophotometer's assay plate compartment that was maintained at 30° C. The decrease of absorbance at 340 nm was monitored as a function of time. The rate data as a function of inhibitor concentration was fitted to competitive inhibition kinetic model to determine the Ki.

T1 sequence (P53779 40-402): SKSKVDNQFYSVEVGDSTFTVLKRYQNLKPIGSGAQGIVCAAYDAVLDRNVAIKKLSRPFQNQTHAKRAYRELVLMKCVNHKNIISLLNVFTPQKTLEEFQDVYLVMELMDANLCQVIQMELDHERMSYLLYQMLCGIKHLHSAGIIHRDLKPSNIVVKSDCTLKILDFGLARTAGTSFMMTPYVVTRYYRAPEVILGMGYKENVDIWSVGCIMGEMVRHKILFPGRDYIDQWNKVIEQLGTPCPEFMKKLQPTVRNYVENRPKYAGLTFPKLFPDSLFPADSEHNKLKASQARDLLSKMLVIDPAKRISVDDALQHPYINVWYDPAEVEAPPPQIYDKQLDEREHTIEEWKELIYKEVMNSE

Structure (SMILES) | Ki | Activity in the JNK3 Inhibition Assay (Ki rating)
Cc1onc(-c2ccccc2)c1-c1ccnc(Nc2ccccc2)n1 [IIA-1, [4-(5-Methyl-3-phenyl-isoxazol-4-yl)-pyrimidin-2-yl]-phenyl-amine] | < 0.1 µM | 
Cc1onc(-c2ccccc2)c1-c1ccnc(Nc2cccc(C#N)c2)n1 [IIA-7] | < 0.1 µM | 
Cc1onc(-c2ccc(F)cc2)c1-c1ccnc(Nc2ccccc2)n1 [IIA-11] | < 0.1 µM | 
COc1cccc(-c2noc(C)c2-c2ccnc(Nc3ccccc3)n2)c1OC [IIA-12] |  | B/C
COc1ccc(-c2noc(C)c2-c2ccnc(Nc3ccccc3)n2)c(OC)c1 [IIA-13] | > 1 µM | 
Cc1onc(-c2ccc(Cl)c(Cl)c2)c1-c1ccnc(Nc2ccccc2)n1 [IIA-15] | 0.1 to 1 µM | 
CC(=O)c1ccc(Nc2nccc(-c3c(-c4ccccc4)noc3C)n2)cc1 [IIA-35] | < 0.1 µM | 
CSc1cccc(Nc2nccc(-c3c(-c4ccccc4)noc3C)n2)c1 [IIA-37] | < 0.1 µM | 
Cc1cc(Nc2nccc(-c3c(-c4ccccc4)noc3C)n2)ccc1C#N [IIA-38] | < 0.1 µM | 
CC(=O)c1cccc(Nc2nccc(-c3c(-c4ccccc4)noc3C)n2)c1 [IIA-39] | < 0.1 µM | 
CCc1onc(-c2ccccc2)c1-c1ccnc(Nc2ccccc2)c1 [IIA-40] | < 0.1 µM | 
Cc1onc(-c2ccccc2)c1-c1ccnc(Nc2ccc(F)cc2)n1 [IIA-42] | < 0.1 µM | 
Cc1onc(-c2ccccc2)c1-c1ccnc(Nc2cccc(C(=O)O)c2)c1 [IIA-43] | < 0.1 µM | 
Cc1onc(-c2ccccc2)c1-c1ccnc(Nc2ccc(-c3ccccc3)cc2)n1 [IIA-44] | < 0.1 µM | 
CSc1ccc(Nc2nccc(-c3c(-c4ccccc4)noc3C)n2)cc1 [IIA-46] | < 0.1 µM | 
COc1ccc(Nc2cc(-c3c(-c4ccccc4)noc3C)ccn2)cc1 [IIA-47] | < 0.1 µM | 
Cc1onc(-c2ccccc2)c1-c1ccnc(Nc2ccccc2)c1 [IIA-52, [4-(5-Methyl-3-phenyl-isoxazol-4-yl)-pyridin-2-yl]phenyl-amine] | < 0.1 µM | 
Cc1onc(-c2ccccc2)c1-c1ccnc(Nc2ccc(C(=O)O)cc2)c1 [IIA-53] | < 0.1 µM | 
Cc1onc(-c2ccccc2F)c1-c1ccnc(Nc2ccccc2)n1 [IIA-55] | < 0.1 µM | 
Cc1onc(-c2ccccc2)c1-c1ccnc(Nc2ccc(F)cc2F)n1 [IIA-56] | < 0.1 µM | 
Cc1onc(-c2ccccc2)c1-c1ccnc(Nc2ccccc2F)n1 [IIA-59] | < 0.1 µM | 
Cc1onc(-c2c(F)cccc2F)c1-c1ccnc(Nc2ccccc2)n1 [IIA-60] | < 0.1 µM | 
COc1ccc(Nc2nccc(-c3c(-c4ccccc4)noc3C)n2)c(C)c1 [IIA-61] | < 0.1 µM | 
COc1ccccc1Nc1nccc(-c2c(-c3ccccc3)noc2C)n1 [IIA-62] | < 0.1 µM | 

Structure (SMILES) | Ki | Activity in the JNK3 Inhibition Assay (Ki rating)
Cc1onc(-c2ccccc2)c1-c1ccnc(Nc2ccc(S(C)(=O)=O)cc2)n1 [IIA-63] | < 0.1 µM | 
COC(=O)c1ccc(Nc2cc(-c3c(-c4ccccc4)noc3C)ccn2)cc1 [IIA-64] | < 0.1 µM | 
Cc1onc(-c2cccc(F)c2)c1-c1ccnc(Nc2ccccc2)n1 [IIA-66] | < 0.1 µM | 
Cc1onc(-c2ccccc2)c1-c1ccnc(Nc2cccc(C#N)c2)c1 [IIA-67] | < 0.1 µM | 
Cc1onc(-c2ccccc2)c1-c1ccnc(Nc2cccc(F)c2C)n1 [IIA-70] |  | A/B
COc1ccc(Cl)c(Nc2nccc(-c3c(-c4ccccc4)noc3C)n2)c1 [IIA-71] |  | A/B
COc1ccc(Nc2nccc(-c3c(-c4ccccc4)noc3C)n2)cc1C [IIA-72] |  | A/B
Cc1onc(-c2cc(F)ccc2F)c1-c1ccnc(Nc2ccccc2)n1 [IIA-74] | 0.1 to 1 µM | 
Cc1onc(-c2c(F)cccc2Cl)c1-c1ccnc(Nc2ccccc2)n1 [IIA-75] | 0.1 to 1 µM | 
Cc1onc(-c2ccccc2Cl)c1-c1ccnc(Nc2ccccc2)n1 [IIA-76] | 0.1 to 1 µM | 
Cc1onc(-c2ccccc2Br)c1-c1ccnc(Nc2ccccc2)n1 [IIA-79] | 0.1 to 1 µM | 
Cc1onc(-c2cccc(F)c2F)c1-c1ccnc(Nc2ccccc2)n1 [IIA-80] | 0.1 to 1 µM | 
Cc1onc(-c2cccc(C(F)(F)F)c2)c1-c1ccnc(Nc2ccccc2)n1 [IIA-82] | 0.1 to 1 µM | 
Cc1onc(-c2cc(F)cc(F)c2)c1-c1ccnc(Nc2ccccc2)n1 [IIA-83] | 0.1 to 1 µM | 
Cc1onc(-c2c(Cl)cccc2Cl)c1-c1ccnc(Nc2ccccc2)n1 [IIA-84] | 0.1 to 1 µM | 
COc1cccc(-c2noc(C)c2-c2ccnc(Nc3ccccc3)n2)c1OC [IIA-85] | > 1 µM | 
Cc1noc(C)c1-c1ccnc(Nc2ccccc2)n1 [IIA-86] | > 1 µM | 
Cc1onc(C2CC2)c1-c1ccnc(Nc2ccccc2)n1 [IIA-87] | > 1 µM | 
Cc1onc(C(C)(C)C)c1-c1ccnc(Nc2ccccc2)n1 [IIA-90] | < 0.1 µM | 
Cc1onc(-c2c(F)cccc2F)c1-c1ccnc(Nc2cccc(C#N)c2)n1 [IIA-92] | < 0.1 µM | 
Cc1onc(-c2c(F)cccc2F)c1-c1ccnc(Nc2ccc(C#N)cc2)n1 [IIA-93] | < 0.1 µM | 
Cc1onc(-c2c(F)cccc2F)c1-c1ccnc(Nc2cccc(F)c2)n1 [IIA-94] | < 0.1 µM | 
Cc1onc(-c2c(F)cccc2F)c1-c1ccnc(Nc2ccc(F)cc2)n1 [IIA-95] | < 0.1 µM | 
CSc1ccc(Nc2nccc(-c3c(-c4c(F)cccc4F)noc3C)n2)cc1 [IIA-97] | < 0.1 µM | 

Structure (SMILES) | Ki | Activity in the JNK3 Inhibition Assay (Ki rating)
Cc1onc(-c2ccccc2)c1-c1ccnc(Nc2ccc(N(C)C)cc2)c1 [IIA-98] | < 0.1 µM | 
Cc1ccc(Nc2nccc(-c3c(-c4ccccc4)noc3C)n2)cc1 [IIA-103] | < 0.1 µM | 
Cc1ccccc1-c1noc(C)c1-c1ccnc(Nc2ccccc2)n1 [IIA-104] | < 0.1 µM | 
Cc1ccccc1-c1noc(C)c1-c1ccnc(Nc2ccc(C#N)c(F)c2)n1 [IIA-105] | < 0.1 µM | 
Cc1cccc(Nc2nccc(-c3c(-c4ccccc4C)noc3C)n2)c1 [IIA-108] | < 0.1 µM | 
Cc1ccccc1-c1noc(C)c1-c1ccnc(Nc2cccc(C#N)c2)n1 [IIA-109] | < 0.1 µM | 
Cc1onc(-c2ccccc2C(F)(F)F)c1-c1ccnc(Nc2ccc(C#N)c(F)c2)n1 [IIA-110] | > 1 µM | 
Cc1onc(-c2ccccc2C(F)(F)F)c1-c1ccnc(Nc2ccccc2)n1 [IIA-112] | > 1 µM | 
Cc1onc(-c2ccc3c(c2)OCO3)c1-c1ccnc(Nc2ccccc2)n1 [IIA-115] | 0.1 to 1 µM | 
Cc1onc(-c2cccc(OCc3ccccc3)c2)c1-c1ccnc(Nc2ccc(C#N)c(F)c2)n1 [IIA-117] | 0.1 to 1 µM | 
Cc1onc(-c2cccc(OCc3ccccc3)c2)c1-c1ccnc(Nc2ccccc2)n1 [IIA-119] | 0.1 to 1 µM | 
Cc1onc(-c2cccc([N+](=O)[O-])c2)c1-c1ccnc(Nc2ccccc2)n1 [IIA-123] | 0.1 to 1 µM | 
Cc1onc(-c2cccc(C#N)c2)c1-c1ccnc(Nc2cccc(C#N)c2)n1 [IIA-126] | 0.1 to 1 µM | 
Cc1onc(-c2cccc(C#N)c2)c1-c1ccnc(Nc2ccccc2)n1 [IIA-127] | 0.1 to 1 µM | 
CCOC(=O)c1ccc(Nc2nccc(-c3c(-c4cccc([N+](=O)[O-])c4)noc3C)n2)cc1 [IIA-128] | 0.1 to 1 µM | 
COC(=O)c1cccc(Nc2nccc(-c3c(-c4cccc(C#N)c4)noc3C)n2)c1 [IIA-129] | 0.1 to 1 µM | 
CCOC(=O)c1cccc(Nc2nccc(-c3c(-c4ccccc4)noc3C)n2)c1 [IIA-130] | < 0.1 µM | 
Cc1onc(-c2ccccc2)c1-c1ccnc(Nc2cccc(CCC(=O)O)c2)c1 [IIA-132] | < 0.1 µM | 
Cc1onc(-c2ccccc2)c1-c1ccnc(Nc2cccc(CC(=O)O)c2)c1 [IIA-133] | < 0.1 µM | 
Cc1onc(-c2ccccc2)c1-c1ccnc(Nc2cccc(CO)c2)c1 [IIA-134] | < 0.1 µM | 
Cc1onc(-c2ccccc2)c1-c1ccnc(Nc2cccc(CCC(=O)N[C@@H](C(=O)OC(C)(C)C)C(C)C)c2)c1 [IIA-135] | 0.1 to 1 µM | 
Cc1onc(-c2ccccc2)c1-c1ccnc(Nc2ccc3ccccc3c2)n1 [IIAA-4] | 0.1 to 1 µM | 
COc1ccc2cc(Nc3nccc(-c4c(-c5ccccc5)noc4C)n3)ccc2c1 [IIAA-10] | < 0.1 µM | 
Cc1onc(-c2ccccc2)c1-c1ccnc(Nc2ccc3c(c2)CCC3=O)n1 [IIAA-11] | < 0.1 µM | 
